{"source": "patent US9956157B2", "about": "“Composition containing fucosterol for skin whitening or moisturizing” (INDUSTRY-ACADEMIC COOPERATION FOUNDATION, YONSEI UNIVERSITY, priority 2014, dated 2018)", "assay_type_in_all_cases": "cell-based", "key": {"[1]": {"tested_on": "caspase 14", "experiment": "Caspase 14 protein expression (western blot) in HaCaT human keratinocytes", "conditions": "HaCaT cells, fucosterol 5, 10, 20 μM, 24 hrs, FIG. 12", "protocol": "HaCaT human keratinocytes were incubated in a Dulbecco's Modified Eagle's Media (DMEM) medium including 10% fetal bovine serum and then put in a 6-well plate with 2×10^5 cell/ml (the final volume of 3 ml). After being incubated for 24 hrs, the medium was removed and fucosterol which was dissolved in the DMEM medium was treated at 5, 10, and 20 μM concentrations, respectively. After 24 hrs, the HaCaT human keratinocytes were lysed with a NP40 buffer solution including proteinase inhibitor cocktail. The protein amount extracted from the HaCaT human keratinocytes was quantified by using a Bradford method. The sample was boiled for 5 min and then the same amount of protein ([…]) was isolated by electrophoresis with 10% SDS-PAGE. The isolated proteins after electrophoresis were transferred to a nitrocellular membrane and western blot was performed. A primary antibody was reacted and the nitrocellular membrane was washed three times by using Tris-buffer saline tween20 (TBST) for 10 min. In this case, the kind and the dilution of the primary antibody used in the present invention is 1:1000. In a secondary antibody reaction, a secondary antibody was put in the membrane performing the primary antibody reaction and reacted for 2 hrs at room temperature. In this case, a dilution of the secondary antibody was 1:5000. […]"}, "[2]": {"tested_on": "B16F10 melanoma cells", "experiment": "Microscopic observation of melanin generation in α-MSH-stimulated B16F10 melanoma cells", "conditions": "200 nM α-MSH, fucosterol 5 and 20 μM, 72 hrs, FIG. 3", "protocol": "B16F10 melanoma cells were incubated in a DMEM medium including 10% fetal bovine serum and then added in a 6-well plate with 2.5×10^5 cell/mL (the final volume of 3 mL). After being incubated for 24 hrs, the medium was removed and fucosterol which was dissolved in the DMEM medium including 200 nM α-MSH was treated at 5 and 20 μM of concentrations, respectively. After 72 hrs, the incubated medium was removed from the 6-well plate and the B16F10 melanoma cells were photographed by using a microscope (Olympus IX71 Model), and the result was illustrated in FIG. 3."}, "[3]": {"tested_on": "HaCaT human keratinocytes", "experiment": "Cornified envelope formation in HaCaT human keratinocytes (absorbance 340 nm)", "conditions": "HaCaT cells, fucosterol 5, 10, 20 μM, 96 hrs, p<0.05, FIG. 8", "protocol": "HaCaT human keratinocytes were incubated in a Dulbecco's Modified Eagle's Media (DMEM) medium including 10% fetal bovine serum and then put in a 6-well plate with 2×10^5 cell/ml (the final volume of 3 ml). After being incubated for 24 hrs, the medium was removed and fucosterol which was dissolved in the DMEM medium was treated at 5, 10, and 20 μM concentrations, respectively. After incubation for 96 hrs, the incubated medium was removed from the 6-well plate to collect a cell pellet, and the cell pellet was transferred to a 1.5 mL tube and centrifuged for 10 min at 10,000 rpm to remove a supernatant. The obtained pellet was added with a Tris buffer solution including 2% sodium dodecyl sulfate (SDS) and 20 mM dithiothreitol (DTT) and boiled, and the absorbance was measured at 340 nm to evaluate the effect on cornified envelope formation. According to Equation 1 below, the formation degree of the cornified envelope compared with the control group was calculated and the result was illustrated in FIG. 8. Cornified envelope formation amount (%) compared with control group=absorbance of each test material/absorbance of control group×100 […]"}, "[4]": {"tested_on": "tyrosinase", "experiment": "Tyrosinase protein expression (western blot) in B16F10 melanoma cells", "conditions": "200 nM α-MSH, fucosterol 5 and 20 μM, 24 hrs, FIG. 5", "protocol": "B16F10 melanoma cells were incubated in a DMEM medium including 10% fetal bovine serum and then added in a 6-well plate with 2.5×10^5 cell/mL (the final volume of 3 mL). After being incubated for 24 hrs, the medium was removed and fucosterol which was dissolved in the DMEM medium including 200 nM α-MSH was treated at 5 and 20 μM of concentrations, respectively. The cells after 24 hrs were lysed with a NP40 buffer solution including proteinase inhibitor cocktail and the protein amount extracted from the cells was quantified by using a Bio-Rad protein assay dye (Bradford) reagent. The quantified protein was boiled for 5 min and isolated by electrophoresis with 10% SDS-PAGE to transfer the isolated proteins to a nitrocellular membrane. A primary antibody of tyrosinase was diluted in 2.5% bovine serum albumin at a ratio of 1:1000 and reacted with the protein transferred to the nitrocellular membrane for 20 hrs at room temperature. The primary antibody was reacted and the nitrocellular membrane was washed by using tris-buffer saline tween 20 (TBST) three times for 10 min. […] As the measured result, the protein expression of tyrosinase was verified and the loading amount of the protein was constant by α-tubulin."}}, "data": [{"smiles": "C/C=C(\\CC[C@@H](C)[C@H]1CC[C@H]2[C@@H]3CC=C4C[C@@H](O)CC[C@]4(C)[C@H]3CC[C@]12C)C(C)C", "note": "[fucosterol]", "values": [{"measurement": "protein expression of caspase 14", "setting": "[1]", "result": "increased"}, {"measurement": "melanin generation, microscopic observation", "setting": "[2]", "result": "largely inhibited"}, {"measurement": "cornified envelope formation", "setting": "[3]", "result": "excellent cornified envelope formation effect"}, {"measurement": "protein expression of tyrosinase", "setting": "[4]", "result": "reduced"}]}]}
